Laboratory results published in the supplement of paper PMC10307832.

Tests used:
Assay in all cases: relative viability (nuclei count vs DMSO), 5 days (fraction); higher = more cells survive
GSK126 + Trametinib = compound: CC[C@H](C)N1C=C(C2=C(C=C(C=C21)C3=CN=C(C=C3)N4CCNCC4)C(=O)NCC5=C(C=C(NC5=O)C)C)C [GSK126] + CC(=O)Nc1cccc(-n2c(=O)n(C3CC3)c(=O)c3c(Nc4ccc(I)cc4F)n(C)c(=O)c(C)c32)c1 [Trametinib] (partner 0.02 µM)
Summary of the method: (§1)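 Medians of duplicate plates are given as relative viability. That measure is the nuclei count in treated wells divided by the count in vehicle wells. Counts were taken on 4× images of lung cancer cell lines in 1536-well plates, 5 days after pin-tool dosing the day after seeding with one drug alone or a fixed anchor-drug dose plus five library-drug doses (not always all listed) in √10 steps.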

MLN4924 + Luminespib = compound: NS(=O)(=O)OC[C@@H]1C[C@@H](n2ccc3c(N[C@H]4CCc5ccccc54)ncnc32)C[C@@H]1O [MLN4924] + CCNC(=O)c1noc(-c2cc(C(C)C)c(O)cc2O)c1-c1ccc(CN2CCOCC2)cc1 [Luminespib] (partner 0.01 µM)
Summary of the method: as §1

GSK126 + Alpelisib = compound: CC[C@H](C)N1C=C(C2=C(C=C(C=C21)C3=CN=C(C=C3)N4CCNCC4)C(=O)NCC5=C(C=C(NC5=O)C)C)C [GSK126] + Cc1nc(NC(=O)N2CCC[C@H]2C(N)=O)sc1-c1ccnc(C(C)(C)C(F)(F)F)c1 [Alpelisib] (partner 2 µM)
Summary of the method: as §1

[1] = compound: C1CC(C1)(C(=O)O)C(=O)O.[NH2-].[NH2-].[Pt+2] [Carboplatin] + CC(=O)c1c(C)c2cnc(Nc3ccc(N4CCNCC4)cn3)nc2n(C2CCCC2)c1=O [Palbociclib] (partner 0.5 µM)
Summary of the method: as §1

Cell Line: LC-2-ad
- relative viability (GSK126 + Trametinib; first compound 0.08 µM): 0.926
- relative viability (GSK126 + Trametinib; first compound 0.253 µM): 0.9
- relative viability (GSK126 + Trametinib; first compound 0.8 µM): 0.91
- relative viability (GSK126 + Trametinib; first compound 2.53 µM): 0.885
- relative viability (GSK126 + Trametinib; first compound 8 µM): 0.957
- relative viability (MLN4924 + Luminespib; first compound 0.04 µM): 0.959
- relative viability (MLN4924 + Luminespib; first compound 0.1265 µM): 0.764
- relative viability (MLN4924 + Luminespib; first compound 0.4 µM): 0.507
- relative viability (MLN4924 + Luminespib; first compound 1.265 µM): 0.282
- relative viability (MLN4924 + Luminespib; first compound 4 µM): 0.274
- relative viability (GSK126 + Alpelisib; first compound 0.08 µM): 0.927
- relative viability (GSK126 + Alpelisib; first compound 0.253 µM): 0.967
- relative viability (GSK126 + Alpelisib; first compound 0.8 µM): 0.773
- relative viability (GSK126 + Alpelisib; first compound 2.53 µM): 0.793
- relative viability (GSK126 + Alpelisib; first compound 8 µM): 0.9
- relative viability ([1]; first compound 0.08 µM): 0.503
- relative viability ([1]; first compound 0.253 µM): 0.561
- relative viability ([1]; first compound 0.8 µM): 0.419
- relative viability ([1]; first compound 2.53 µM): 0.466
- relative viability ([1]; first compound 8 µM): 0.47

Cell Line: NCI-H1734
- relative viability (GSK126 + Trametinib; first compound 0.08 µM): 0.801
- relative viability (GSK126 + Trametinib; first compound 0.253 µM): 0.63
- relative viability (GSK126 + Trametinib; first compound 0.8 µM): 0.662
- relative viability (GSK126 + Trametinib; first compound 2.53 µM): 0.731
- relative viability (GSK126 + Trametinib; first compound 8 µM): 0.766
- relative viability (MLN4924 + Luminespib; first compound 0.04 µM): 0.202
- relative viability (MLN4924 + Luminespib; first compound 0.1265 µM): 0.189
- relative viability (MLN4924 + Luminespib; first compound 0.4 µM): 0.187
- relative viability (MLN4924 + Luminespib; first compound 1.265 µM): 0.122
- relative viability (MLN4924 + Luminespib; first compound 4 µM): 0.137
- relative viability (GSK126 + Alpelisib; first compound 0.08 µM): 0.789
- relative viability (GSK126 + Alpelisib; first compound 0.253 µM): 0.605
- relative viability (GSK126 + Alpelisib; first compound 0.8 µM): 0.654
- relative viability (GSK126 + Alpelisib; first compound 2.53 µM): 0.698
- relative viability (GSK126 + Alpelisib; first compound 8 µM): 0.682
- relative viability ([1]; first compound 0.08 µM): 0.367
- relative viability ([1]; first compound 0.253 µM): 0.342
- relative viability ([1]; first compound 0.8 µM): 0.356
- relative viability ([1]; first compound 2.53 µM): 0.362
- relative viability ([1]; first compound 8 µM): 0.311

Cell Line: NCI-H460
- relative viability (GSK126 + Trametinib; first compound 0.08 µM): 0.422
- relative viability (GSK126 + Trametinib; first compound 0.253 µM): 0.153
- relative viability (GSK126 + Trametinib; first compound 0.8 µM): 0.121
- relative viability (GSK126 + Trametinib; first compound 2.53 µM): 0.11
- relative viability (GSK126 + Trametinib; first compound 8 µM): 0.195
- relative viability (MLN4924 + Luminespib; first compound 0.04 µM): 0.0434
- relative viability (MLN4924 + Luminespib; first compound 0.1265 µM): 0.0335
- relative viability (MLN4924 + Luminespib; first compound 0.4 µM): 0.0273
- relative viability (MLN4924 + Luminespib; first compound 1.265 µM): 0.0208
- relative viability (MLN4924 + Luminespib; first compound 4 µM): 0.0178
- relative viability (GSK126 + Alpelisib; first compound 0.08 µM): 0.673
- relative viability (GSK126 + Alpelisib; first compound 0.253 µM): 0.486
- relative viability (GSK126 + Alpelisib; first compound 0.8 µM): 0.369
- relative viability (GSK126 + Alpelisib; first compound 2.53 µM): 0.504
- relative viability (GSK126 + Alpelisib; first compound 8 µM): 0.431
- relative viability ([1]; first compound 0.08 µM): 0.232
- relative viability ([1]; first compound 0.253 µM): 0.147
- relative viability ([1]; first compound 0.8 µM): 0.127
- relative viability ([1]; first compound 2.53 µM): 0.0559
- relative viability ([1]; first compound 8 µM): 0.052

Cell Line: NCI-H838
- relative viability (GSK126 + Trametinib; first compound 0.08 µM): 0.58
- relative viability (GSK126 + Trametinib; first compound 0.253 µM): 0.51
- relative viability (GSK126 + Trametinib; first compound 0.8 µM): 0.437
- relative viability (GSK126 + Trametinib; first compound 2.53 µM): 0.477
- relative viability (GSK126 + Trametinib; first compound 8 µM): 0.483
- relative viability (MLN4924 + Luminespib; first compound 0.04 µM): 0.23
- relative viability (MLN4924 + Luminespib; first compound 0.1265 µM): 0.279
- relative viability (MLN4924 + Luminespib; first compound 0.4 µM): 0.173
- relative viability (MLN4924 + Luminespib; first compound 1.265 µM): 0.12
- relative viability (MLN4924 + Luminespib; first compound 4 µM): 0.125
- relative viability (GSK126 + Alpelisib; first compound 0.08 µM): 1.12
- relative viability (GSK126 + Alpelisib; first compound 0.253 µM): 0.982
- relative viability (GSK126 + Alpelisib; first compound 0.8 µM): 0.866
- relative viability (GSK126 + Alpelisib; first compound 2.53 µM): 0.845
- relative viability (GSK126 + Alpelisib; first compound 8 µM): 0.809
- relative viability ([1]; first compound 0.08 µM): 0.213
- relative viability ([1]; first compound 0.253 µM): 0.238
- relative viability ([1]; first compound 0.8 µM): 0.212
- relative viability ([1]; first compound 2.53 µM): 0.224
- relative viability ([1]; first compound 8 µM): 0.261

Cell Line: NCI-H2347
- relative viability (GSK126 + Trametinib; first compound 0.08 µM): 0.289
- relative viability (GSK126 + Trametinib; first compound 0.253 µM): 0.276
- relative viability (GSK126 + Trametinib; first compound 0.8 µM): 0.261
- relative viability (GSK126 + Trametinib; first compound 2.53 µM): 0.303
- relative viability (GSK126 + Trametinib; first compound 8 µM): 0.298
- relative viability (MLN4924 + Luminespib; first compound 0.04 µM): 0.397
- relative viability (MLN4924 + Luminespib; first compound 0.1265 µM): 0.351
- relative viability (MLN4924 + Luminespib; first compound 0.4 µM): 0.575
- relative viability (MLN4924 + Luminespib; first compound 1.265 µM): 0.332
- relative viability (MLN4924 + Luminespib; first compound 4 µM): 0.255
- relative viability (GSK126 + Alpelisib; first compound 0.08 µM): 1.22
- relative viability (GSK126 + Alpelisib; first compound 0.253 µM): 0.918
- relative viability (GSK126 + Alpelisib; first compound 0.8 µM): 1.09
- relative viability (GSK126 + Alpelisib; first compound 2.53 µM): 0.99
- relative viability (GSK126 + Alpelisib; first compound 8 µM): 0.907
- relative viability ([1]; first compound 0.08 µM): 0.456
- relative viability ([1]; first compound 0.253 µM): 0.418
- relative viability ([1]; first compound 0.8 µM): 0.423
- relative viability ([1]; first compound 2.53 µM): 0.482
- relative viability ([1]; first compound 8 µM): 0.42

Cell Line: NCI-H1395
- relative viability (GSK126 + Trametinib; first compound 0.08 µM): 1.07
- relative viability (GSK126 + Trametinib; first compound 0.253 µM): 0.955
- relative viability (GSK126 + Trametinib; first compound 0.8 µM): 1.05
- relative viability (GSK126 + Trametinib; first compound 2.53 µM): 0.994
- relative viability (GSK126 + Trametinib; first compound 8 µM): 0.964
- relative viability (MLN4924 + Luminespib; first compound 0.04 µM): 0.867
- relative viability (MLN4924 + Luminespib; first compound 0.1265 µM): 0.619
- relative viability (MLN4924 + Luminespib; first compound 0.4 µM): 0.539
- relative viability (MLN4924 + Luminespib; first compound 1.265 µM): 0.429
- relative viability (MLN4924 + Luminespib; first compound 4 µM): 0.346
- relative viability (GSK126 + Alpelisib; first compound 0.08 µM): 1.12
- relative viability (GSK126 + Alpelisib; first compound 0.253 µM): 0.937
- relative viability (GSK126 + Alpelisib; first compound 0.8 µM): 1.08
- relative viability (GSK126 + Alpelisib; first compound 2.53 µM): 1.2
- relative viability (GSK126 + Alpelisib; first compound 8 µM): 1.03
- relative viability ([1]; first compound 0.08 µM): 0.703
- relative viability ([1]; first compound 0.253 µM): 0.679
- relative viability ([1]; first compound 0.8 µM): 0.547
- relative viability ([1]; first compound 2.53 µM): 0.487
- relative viability ([1]; first compound 8 µM): 0.535

Cell Line: NCI-H647
- relative viability (GSK126 + Trametinib; first compound 0.08 µM): 0.55
- relative viability (GSK126 + Trametinib; first compound 0.253 µM): 0.461
- relative viability (GSK126 + Trametinib; first compound 0.8 µM): 0.381
- relative viability (GSK126 + Trametinib; first compound 2.53 µM): 0.44
- relative viability (GSK126 + Trametinib; first compound 8 µM): 0.413
- relative viability (MLN4924 + Luminespib; first compound 0.04 µM): 0.193
- relative viability (MLN4924 + Luminespib; first compound 0.1265 µM): 0.157
- relative viability (MLN4924 + Luminespib; first compound 0.4 µM): 0.127
- relative viability (MLN4924 + Luminespib; first compound 1.265 µM): 0.0558
- relative viability (MLN4924 + Luminespib; first compound 4 µM): 0.0842
- relative viability (GSK126 + Alpelisib; first compound 0.08 µM): 1.33
- relative viability (GSK126 + Alpelisib; first compound 0.253 µM): 1.34
- relative viability (GSK126 + Alpelisib; first compound 0.8 µM): 1.1
- relative viability (GSK126 + Alpelisib; first compound 2.53 µM): 1.05
- relative viability (GSK126 + Alpelisib; first compound 8 µM): 0.919
- relative viability ([1]; first compound 0.08 µM): 0.433
- relative viability ([1]; first compound 0.253 µM): 0.542
- relative viability ([1]; first compound 0.8 µM): 0.388
- relative viability ([1]; first compound 2.53 µM): 0.229
- relative viability ([1]; first compound 8 µM): 0.37

Cell Line: NCI-H520
- relative viability (GSK126 + Trametinib; first compound 0.08 µM): 0.748
- relative viability (GSK126 + Trametinib; first compound 0.253 µM): 0.665
- relative viability (GSK126 + Trametinib; first compound 0.8 µM): 0.563
- relative viability (GSK126 + Trametinib; first compound 2.53 µM): 0.807
- relative viability (GSK126 + Trametinib; first compound 8 µM): 0.817
- relative viability (MLN4924 + Luminespib; first compound 0.04 µM): 0.25
- relative viability (MLN4924 + Luminespib; first compound 0.1265 µM): 0.2
- relative viability (MLN4924 + Luminespib; first compound 0.4 µM): 0.227
- relative viability (MLN4924 + Luminespib; first compound 1.265 µM): 0.213
- relative viability (MLN4924 + Luminespib; first compound 4 µM): 0.205
- relative viability (GSK126 + Alpelisib; first compound 0.08 µM): 0.946
- relative viability (GSK126 + Alpelisib; first compound 0.253 µM): 0.758
- relative viability (GSK126 + Alpelisib; first compound 0.8 µM): 0.931
- relative viability (GSK126 + Alpelisib; first compound 2.53 µM): 0.864
- relative viability (GSK126 + Alpelisib; first compound 8 µM): 0.783
- relative viability ([1]; first compound 0.08 µM): 0.26
- relative viability ([1]; first compound 0.253 µM): 0.2
- relative viability ([1]; first compound 0.8 µM): 0.201
- relative viability ([1]; first compound 2.53 µM): 0.223
- relative viability ([1]; first compound 8 µM): 0.228
